Test results taken from paper doi:10.1101/2024.01.16.575974v2, “Structural insights into peptidoglycan hydrolysis by the FtsEX system in Escherichia coli during cell division” (biorxiv, 2025).
Where a chain is given by its changes, count along the chain named.

Legend:
EcoFtsEX [1] = target: T1, EcoFtsEX (Escherichia coli, UniProt P0A9R7); test: complex stabilisation against precipitation (SDS-PAGE); type: binding; settings: 2 mM nucleotide, pH 8.0
T1 construct: gene ftsE; full-length, His6-tagged (pTD68 his6-FtsEX), expressed in E. coli BL21(DE3) pLysS, DDM-solubilised, in peptidiscs; two FtsE and two FtsX; with Cell division protein FtsX
T1 sequence (P0A9R7 1-222): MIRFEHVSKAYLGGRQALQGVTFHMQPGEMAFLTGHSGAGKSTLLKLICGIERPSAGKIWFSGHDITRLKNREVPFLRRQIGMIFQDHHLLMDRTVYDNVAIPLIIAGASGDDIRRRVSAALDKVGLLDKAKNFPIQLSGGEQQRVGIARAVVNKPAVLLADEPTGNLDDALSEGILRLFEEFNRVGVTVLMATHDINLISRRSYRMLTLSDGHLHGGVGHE
T1 sequence (P0AC30 1-352 partner): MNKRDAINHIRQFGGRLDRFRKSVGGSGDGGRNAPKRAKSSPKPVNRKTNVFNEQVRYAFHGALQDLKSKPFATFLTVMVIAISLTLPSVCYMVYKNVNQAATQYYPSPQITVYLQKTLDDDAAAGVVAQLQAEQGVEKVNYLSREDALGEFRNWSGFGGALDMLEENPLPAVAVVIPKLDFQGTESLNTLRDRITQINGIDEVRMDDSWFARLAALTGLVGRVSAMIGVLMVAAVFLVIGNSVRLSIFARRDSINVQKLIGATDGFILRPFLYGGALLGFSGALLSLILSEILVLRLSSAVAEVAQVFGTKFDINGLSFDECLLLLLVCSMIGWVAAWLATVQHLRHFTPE

PaeFtsEX = target: T2, PaeFtsEX (Pseudomonas aeruginosa, UniProt Q9I6C0); test: complex stabilisation (SEC yield, FtsE:FtsX stoichiometry on SDS-PAGE); settings: 2 mM ATP, pH 8.0; indirect evidence of binding
T2 construct: gene ftsE; His6-FtsEX (pTD68) expressed in E. coli BL21(DE3) pLysS, DDM-solubilised, peptidiscs, SEC; with Cell division protein FtsX
T2 sequence (Q9I6C0 1-223): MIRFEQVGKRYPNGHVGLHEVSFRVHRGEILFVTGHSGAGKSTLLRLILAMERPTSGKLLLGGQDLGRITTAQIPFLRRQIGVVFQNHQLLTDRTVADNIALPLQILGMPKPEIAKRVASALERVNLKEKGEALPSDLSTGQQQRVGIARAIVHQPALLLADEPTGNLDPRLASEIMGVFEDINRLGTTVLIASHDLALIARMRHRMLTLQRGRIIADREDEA
T2 sequence (Q9I6B9 1-335 partner): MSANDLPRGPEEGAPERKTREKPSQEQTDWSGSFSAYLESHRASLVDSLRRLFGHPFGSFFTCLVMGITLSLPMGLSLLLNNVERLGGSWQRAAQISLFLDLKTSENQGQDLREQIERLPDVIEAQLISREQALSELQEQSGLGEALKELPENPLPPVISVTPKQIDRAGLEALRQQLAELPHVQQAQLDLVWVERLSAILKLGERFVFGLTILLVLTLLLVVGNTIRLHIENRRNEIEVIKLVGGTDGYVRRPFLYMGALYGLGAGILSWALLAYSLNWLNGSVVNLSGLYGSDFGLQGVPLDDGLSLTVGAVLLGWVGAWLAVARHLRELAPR

SpFtsEX = target: T3, SpFtsEX (Streptococcus pneumoniae, UniProt A0A0H2ZM82); test: as above; settings: 2 mM ATP, pH 8.0; indirect evidence of binding
T3 construct: gene ftsE; His6-FtsEX (pTD68) expressed in E. coli BL21(DE3) pLysS, DDM-solubilised, peptidiscs, SEC; with Cell division protein FtsX
T3 sequence (A0A0H2ZM82 1-230): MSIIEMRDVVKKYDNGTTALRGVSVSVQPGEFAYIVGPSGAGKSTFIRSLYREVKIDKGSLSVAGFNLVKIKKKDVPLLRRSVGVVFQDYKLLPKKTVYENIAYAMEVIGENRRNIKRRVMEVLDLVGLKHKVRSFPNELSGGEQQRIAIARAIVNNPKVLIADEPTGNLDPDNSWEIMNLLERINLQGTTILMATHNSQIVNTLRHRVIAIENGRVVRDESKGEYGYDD
T3 sequence (Q04LE4 1-308 partner): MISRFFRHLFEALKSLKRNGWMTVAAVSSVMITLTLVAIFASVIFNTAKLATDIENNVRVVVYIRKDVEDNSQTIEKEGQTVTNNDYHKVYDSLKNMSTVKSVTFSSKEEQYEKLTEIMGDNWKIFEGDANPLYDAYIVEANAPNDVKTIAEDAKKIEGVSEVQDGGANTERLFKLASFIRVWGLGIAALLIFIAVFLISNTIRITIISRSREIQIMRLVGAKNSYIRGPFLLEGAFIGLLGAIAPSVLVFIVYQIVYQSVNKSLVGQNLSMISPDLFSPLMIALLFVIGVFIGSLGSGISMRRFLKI

EcoFtsEX/EnvC = target: T4, EcoFtsEX/EnvC (Escherichia coli, UniProt P0A9R7, E163Q); test: cryo-EM structure, […] Å; type: binding; settings: 2 mM ATP-Mg2+, peptidiscs; hydrolysis-deficient mutant, two bound nucleotides at FtsE
T4 construct: gene ftsE; full-length His6-FtsEX in peptidiscs plus EnvC delta34 (signal region removed, His6-SUMO tag cut), both expressed in E. coli BL21(DE3) pLysS; with Cell division protein FtsX
T4 sequence (P0A9R7 1-222 E163Q): T1 sequence (P0A9R7 1-222) with E163Q
T4 sequence (P0AC30 1-352 partner): T1 sequence (P0AC30 1-352 partner)
T4 sequence (P37690 35-419 partner): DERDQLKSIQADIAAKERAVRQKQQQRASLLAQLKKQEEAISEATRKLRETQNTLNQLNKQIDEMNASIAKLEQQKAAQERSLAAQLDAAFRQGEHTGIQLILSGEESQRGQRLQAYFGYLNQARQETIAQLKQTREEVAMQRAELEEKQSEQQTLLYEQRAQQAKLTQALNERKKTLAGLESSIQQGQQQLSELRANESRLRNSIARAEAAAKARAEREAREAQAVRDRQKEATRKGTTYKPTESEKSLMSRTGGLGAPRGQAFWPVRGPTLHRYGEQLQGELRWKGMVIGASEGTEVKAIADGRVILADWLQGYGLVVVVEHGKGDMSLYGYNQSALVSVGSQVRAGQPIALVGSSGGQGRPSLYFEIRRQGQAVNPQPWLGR

BsFtsEX = target: T5, BsFtsEX (Bacillus subtilis, UniProt O34814); test: complex stabilisation (SEC yield, FtsE:FtsX stoichiometry on SDS-PAGE); settings: 2 mM ATP, pH 8.0; indirect evidence of binding
T5 construct: gene ftsE; His6-FtsEX (pTD68) expressed in E. coli BL21(DE3) pLysS, DDM-solubilised, peptidiscs, SEC; with Cell division protein FtsX
T5 sequence (O34814 1-228): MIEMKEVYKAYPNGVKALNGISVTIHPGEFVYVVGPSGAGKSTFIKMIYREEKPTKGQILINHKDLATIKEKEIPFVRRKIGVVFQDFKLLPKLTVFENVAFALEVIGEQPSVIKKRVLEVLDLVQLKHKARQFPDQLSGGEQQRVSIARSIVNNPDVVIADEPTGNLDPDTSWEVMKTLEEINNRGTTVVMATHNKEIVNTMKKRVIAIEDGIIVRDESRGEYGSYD
T5 sequence (O34876 1-296 partner): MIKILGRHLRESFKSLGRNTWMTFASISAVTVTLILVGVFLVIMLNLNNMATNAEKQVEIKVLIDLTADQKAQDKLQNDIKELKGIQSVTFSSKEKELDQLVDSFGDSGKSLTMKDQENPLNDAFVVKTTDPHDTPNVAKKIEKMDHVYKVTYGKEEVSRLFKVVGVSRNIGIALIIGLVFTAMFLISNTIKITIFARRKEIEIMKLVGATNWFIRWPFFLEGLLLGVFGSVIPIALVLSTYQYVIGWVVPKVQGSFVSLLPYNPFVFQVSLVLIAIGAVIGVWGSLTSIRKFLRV

EcoFtsEX [2] = target: T1, EcoFtsEX; test: cryo-EM structure, […] Å; type: binding; settings: 3 mM ATPγS, 2 mM Mg2+, peptidiscs; two bound nucleotides at FtsE

Nc1ncnc2c1ncn2[C@@H]1O[C@H](COP(=O)(O)OP(=O)(O)O)[C@@H](O)[C@H]1O [ADP]
complex stabilisation against precipitation (SDS-PAGE) (EcoFtsEX [1]): ATP analogues, including ATPγS, AMP-PNP, and ADP, also exhibited similar stabilizing effects

Nc1ncnc2c1ncn2[C@@H]1O[C@H](COP(=O)(O)OP(=O)(O)NP(=O)(O)O)[C@@H](O)[C@H]1O [AMP-PNP]
complex stabilisation against precipitation (SDS-PAGE) (EcoFtsEX [1]): ATP analogues, including ATPγS, AMP-PNP, and ADP, also exhibited similar stabilizing effects

Nc1ncnc2c1ncn2[C@@H]1O[C@H](COP(=O)(O)OP(=O)(O)OP(=O)(O)O)[C@@H](O)[C@H]1O [ATP]
complex stabilisation (SEC yield, FtsE:FtsX stoichiometry on SDS-PAGE) (PaeFtsEX): regardless of the bacterial species, ATP consistently enhanced the stability of the complexes
complex stabilisation (SEC yield, FtsE:FtsX stoichiometry on SDS-PAGE) (SpFtsEX): regardless of the bacterial species, ATP consistently enhanced the stability of the complexes
cryo-EM structure, 3.4 Å (EcoFtsEX/EnvC): 8W6J (ATP-bound FtsE^E163QX/EnvC)
complex stabilisation (SEC yield, FtsE:FtsX stoichiometry on SDS-PAGE) (BsFtsEX): regardless of the bacterial species, ATP consistently enhanced the stability of the complexes

Nc1ncnc2c1ncn2[C@@H]1O[C@H](COP(=O)(O)OP(=O)(O)OP(O)(O)=S)[C@@H](O)[C@H]1O [ATPγS]
cryo-EM structure, 3.7 Å (EcoFtsEX [2]): 8W6I (ATPγS bound FtsEX)
